Source: patent publication US20080306056A1, “PYRAZOLE-DERIVATIVES AS FACTOR Xa INHIBITORS” (SANOFI-AVENTIS DEUTSCHLAND GMBH, priority 2002, published 2008)

Molecular target: T1, human factor Xa (Homo sapiens, UniProt P00742)
T1 construct: 25 μl human factor Xa (Enzyme Research Laboratories, Inc; South Bend, Ind.); purchased Enzyme Research Laboratories, Inc; South Bend, Ind
Assay: Factor Xa assay (chromogenic, purified enzyme)
Type: biochemical
Details: inhibition constant for factor Xa; chromogenic substrate S-2765 140 μM, enzyme 0.5 nM, 25° C., pH 7.8; Ki=IC50/{1+(substrate concentration/Km)}; read-out: Ki(FXa)
Source text: The ability of the compound of formulae I, Ib and Ic to inhibit factor Xa or factor VIIa or other enzymes like thrombin, plasmin, or trypsin can be assessed by determining the concentration of the compound of the formulae I, Ib and Ic that inhibits enzyme activity by 50%, i.e. the IC50 value, which was related to the inhibition constant Ki. Purified enzymes were used in chromogenic assays. The concentration of inhibitor that causes a 50% decrease in the rate of substrate hydrolysis was determined by linear regression after plotting the relative rates of hydrolysis (compared to the uninhibited control) versus the log of the concentration of the compound of formulae I, Ib and Ic. For calculating the inhibition constant Ki, the IC50 value was corrected for competition with substrate using the formula wherein Km is the Michaelis-Menten constant (Chen and Prusoff, Biochem.
Ki=IC50/{1+(substrate concentration/Km)}
Pharmacol. 22 (1973) 3099-3108; I. H. Segal, Enzyme Kinetics, 1975, John Wiley & Sons, New York, 100-125; which were incorporated herein by reference).
The IC50 was determined by combining in appropriate wells of a Costar half-area microtiter plate 25 μl human factor Xa (Enzyme Research Laboratories, Inc.; South Bend, Ind.) in TBS-PEG; 40 μl 10% (v/v) DMSO in TBS-PEG (uninhibited control) or various concentrations of the compound to be tested diluted in 10% (v/v) DMSO in TBS-PEG; and substrate S-2765 (N(α)-benzyloxycarbonyl-D-Arg-Gly-L-Arg-p-nitroanilide; Kabi Pharmacia, Inc.; Franklin, Ohio) in TBS-PEG.
The assay was performed by pre-incubating the compound of formulae I, Ib and Ic plus enzyme for 10 min. Then the assay was initiated by adding substrate to obtain a final volume of 100 μl. The initial velocity of chromogenic substrate hydrolysis was measured by the change in absorbance at 405 nm using a Bio-tek Instruments kinetic plate reader (Ceres UV900HDi) at 25° C. during the linear portion of the time course (usually 1.5 min after addition of substrate). The enzyme concentration was 0.5 nM and substrate concentration was 140 μM.
The inhibitory activity towards factor VIIa/tissue factor activity was determined using a chromogenic assay essentially as described previously (J. A. Ostrem et al., Biochemistry 37 (1998) 1053-1059 which was incorporated herein by reference). Kinetic assays were conducted at 25° C. in half-area microtiter plates (Costar Corp., Cambridge, Mass.) using a kinetic plate reader (Molecular Devices Spectramax 250). A typical assay consisted of 25 μl human factor VIIa and TF (5 nM and 10 nM, respective final concentration) combined with 40 μl of inhibitor dilutions in 10% DMSO/TBS-PEG buffer (50 mM Tris, 15 mM NaCl, 5 mM CaCl2, 0.05% PEG 8000, pH 8.15). Following a 15 minute preincubation period, the assay was initiated by the addition of 35 μl of the chromogenic substrate S-2288 (D-Ile-Pro-Arg-p-nitroanilide, Pharmacia Hepar Inc., 500 μM final concentration).

T1 sequence (P00742 235-488 limits assumed): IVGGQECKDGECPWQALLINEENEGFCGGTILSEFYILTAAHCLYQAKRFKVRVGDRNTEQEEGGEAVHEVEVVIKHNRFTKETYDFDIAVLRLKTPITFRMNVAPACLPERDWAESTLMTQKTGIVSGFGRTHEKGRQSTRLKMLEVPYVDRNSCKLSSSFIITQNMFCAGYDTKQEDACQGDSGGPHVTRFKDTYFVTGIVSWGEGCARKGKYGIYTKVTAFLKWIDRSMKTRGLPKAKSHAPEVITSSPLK
T1 sequence (P00742 41-179 partner limits assumed): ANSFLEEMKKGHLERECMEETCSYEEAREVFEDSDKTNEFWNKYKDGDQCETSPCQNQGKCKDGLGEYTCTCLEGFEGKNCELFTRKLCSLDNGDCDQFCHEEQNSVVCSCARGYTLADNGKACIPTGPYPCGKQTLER

SMILES	Ki [nM]
CC(C)N1CCC(NC(=O)c2cc(C(=O)NCCC(=O)O)nn2Cc2cc(-c3ccc(Cl)s3)on2)CC1 [Example 58, 3-{[1-[5-(5-Chloro-thiophen-2-yl)-isoxazol-3-ylmethyl]-5-(1-isopropyl-piperidin-4-ylcarbamoyl)-1H-pyrazole-3-carbonyl]-amino}-propionic acid]	63
CC(C)N1CCC(NC(=O)c2cc(C(=O)NC(C(=O)O)C(F)(F)F)nn2Cc2cc(-c3ccc(Cl)s3)on2)CC1 (stereo not drawn) [Example 79, 2-{[1-[5-(5-Chloro-thiophen-2-yl)-isoxazol-3-ylmethyl]-5-(1-isopropyl-piperidin-4-ylcarbamoyl)-1H-pyrazole-3-carbonyl]-amino}-3,3,3-trifluoro-propionic acid]	80
CC(C)N1CCC(NC(=O)c2cc(-c3n[nH]c(=O)o3)nn2Cc2cc(-c3ccc(Cl)s3)on2)CC1 [Example 29, 2-[5-(5-Chloro-thiophen-2-yl)-isoxazol-3-ylmethyl]-5-(5-oxo-4,5-dihydro-[1,3,4]oxadiazol-2-yl)-2H-pyrazole-3-carboxylic acid (1-isopropyl-piperidin-4-yl)-amide]	155
CC(C)N1CCC(NC(=O)c2cc(C(=O)N3CCC(S(C)(=O)=O)C3)nn2Cc2cc(-c3ccc(Cl)s3)on2)CC1 (stereo not drawn) [Example 39, 2-[5-(5-Chloro-thiophen-2-yl)-isoxazol-3-ylmethyl]-5-(3-methanesulfonyl-pyrrolidine-1-carbonyl)-2H-pyrazole-3-carboxylic acid (1-isopropyl-piperidin-4-yl)-amide]	145
CC(C)N1CCC(NC(=O)c2cc(C(=O)NC3CCC3)nn2Cc2cc(-c3ccc(Cl)s3)on2)CC1 [Example 46, 1-[5-(5-Chloro-thiophen-2-yl)-isoxazol-3-ylmethyl]-1H-pyrazole-3,5-dicarboxylic acid 3-cyclobutylamide 5-[(1-isopropyl-piperidin-4-yl)-amide]]	106
CC(C)N1CCC(NC(=O)c2cc(C(=O)OCC3CC3)nn2CC(=O)Nc2ccc(Cl)cn2)CC1 [Example 96, 1-[(5-Chloro-pyridin-2-ylcarbamoyl)-methyl]-5-(1-isopropyl-piperidin-4-ylcarbamoyl)-1H-pyrazole-3-carboxylic acid cyclopropylmethyl ester]	18
CC(C)N1CCC(NC(=O)c2cc(C(=O)NCCN3CCOCC3)nn2Cc2cc(-c3ccc(Cl)s3)on2)CC1 [Example 70, 1-[5-(5-Chloro-thiophen-2-yl)-isoxazol-3-ylmethyl]-1H-pyrazole-3,5-dicarboxylic acid 5-[(1-isopropyl-piperidin-4-yl)-amide] 3-[(2-morpholin-4-yl-ethyl)-amide]]	182
COCCOC(=O)c1cc(C(=O)NC2CCN(C(C)C)CC2)n(CC(=O)Nc2ccc(Cl)cn2)n1 [Example 106, 1-[(5-Chloro-pyridin-2-ylcarbamoyl)-methyl]-5-(1-isopropyl-piperidin-4-ylcarbamoyl)-1H-pyrazole-3-carboxylic acid 2-methoxy-ethyl ester]	16
CC(C)N1CCC(NC(=O)c2cc(C(=O)N3CCCC3)nn2Cc2cc(-c3ccc(Cl)s3)on2)CC1 [Example 48, 2-[5-(5-Chloro-thiophen-2-yl)-isoxazol-3-ylmethyl]-5-(pyrrolidine-1-carbonyl)-2H-pyrazole-3-carboxylic acid (1-isopropyl-piperidin-4-yl)-amide]	183
CC(C)N1CCC(NC(=O)c2cc(C(=O)N(C)C3CCS(=O)(=O)C3)nn2Cc2cc(-c3ccc(Cl)s3)on2)CC1 (stereo not drawn) [Example 40, 1-[5-(5-Chloro-thiophen-2-yl)-isoxazol-3-ylmethyl]-1H-pyrazole-3,5-dicarboxylic acid 3-[(1,1-dioxo-tetrahydro-1-thiophen-3-yl)-methyl-amide] 5-[(1-isopropyl-piperidin-4-yl)-amide]]	123
CC(C)N1CCC(NC(=O)c2cc(C(=O)N3CCC(N4CCCC4=O)CC3)nn2Cc2cc(-c3ccc(Cl)s3)on2)CC1 [Example 81, 2-[5-(5-Chloro-thiophen-2-yl)-isoxazol-3-ylmethyl]-5-[4-(2-oxo-pyrrolidin-1-yl)-piperidine-1-carbonyl]-2H-pyrazole-3-carboxylic acid (1-isopropyl-piperidin-4-yl)-amide]	142
CCCc1cc(C(=O)NC2CCN(C(C)C)CC2)n(Cc2cc(-c3ccc(Cl)s3)on2)n1 [Example 8, 2-[5-(5-Chloro-thiophen-2-yl)-isoxazol-3-ylmethyl]-5-propyl-2H-pyrazole-3-carboxylic acid (1-isopropyl-piperidin-4-yl)-amide]	54
CC(C)N1CCC(NC(=O)c2cc(C(=O)N3CCC3)n(Cc3cc(-c4ccc(Cl)s4)on3)n2)CC1 [Example 86, 5-(Azetidine-1-carbonyl)-1-[5-(5-chloro-thiophen-2-yl)-isoxazol-3-ylmethyl]-1H-pyrazole-3-carboxylic acid (1-isopropyl-piperidin-4-yl)-amide]	142
CC(C)N1CCC(NC(=O)c2cc(C(=O)NCC(N)=O)nn2Cc2cc(-c3ccc(Cl)s3)on2)CC1 [Example 60, 1-[5-(5-Chloro-thiophen-2-yl)-isoxazol-3-ylmethyl]-1H-pyrazole-3,5-dicarboxylic acid 3-carbamoylmethyl-amide 5-[(1-isopropyl-piperidin-4-yl)-amide]]	56
CCOC(=O)c1cc(C(=O)NC2CCN(C(C)C)CC2)n(Cc2cc(-c3ccc(Cl)s3)on2)n1 [Example 23, 1-[5-(5-Chloro-thiophen-2-yl)-isoxazol-3-ylmethyl]-5-(1-isopropyl-piperidin-4-ylcarbamoyl)-1H-pyrazole-3-carboxylic acid ethyl ester]	144
COCCNC(=O)c1cc(C(=O)NC2CCN(C(C)C)CC2)n(Cc2cc(-c3ccc(Cl)s3)on2)n1 [Example 47, 1-[5-(5-Chloro-thiophen-2-yl)-isoxazol-3-ylmethyl]-1H-pyrazole-3,5-dicarboxylic acid 5-[(1-isopropyl-piperidin-4-yl)-amide] 3-[(2-methoxy-ethyl)-amide]]	86
CC(C)N1CCC(NC(=O)c2cc(C(=O)N3CCSC3)nn2Cc2cc(-c3ccc(Cl)s3)on2)CC1 [Example 78, 2-[5-(5-Chloro-thiophen-2-yl)-isoxazol-3-ylmethyl]-5-(thiazolidine-3-carbonyl)-2H-pyrazole-3-carboxylic acid (1-isopropyl-piperidin-4-yl)-amide]	144
CC(C)N1CCC(NC(=O)c2cc(C(=O)N3CC[C@H]3C(=O)O)nn2Cc2cc(-c3ccc(Cl)s3)on2)CC1 [Example 63, 1-[1-[5-(5-Chloro-thiophen-2-yl)-isoxazol-3-ylmethyl]-5-(1-isopropyl-piperidin-4-ylcarbamoyl)-1H-pyrazole-3-carbonyl]-(2S)-azetidine-2-carboxylic acid]	134
CC(C)N1CCC(NC(=O)c2cc(C(=O)NCCS(N)(=O)=O)nn2Cc2cc(-c3ccc(Cl)s3)on2)CC1 [Example 44, 1-[5-(5-Chloro-thiophen-2-yl)-isoxazol-3-ylmethyl]-1H-pyrazole-3,5-dicarboxylic acid 5-[(1-isopropyl-piperidin-4-yl)-amide] 3-[(2-sulfamoyl-ethyl)-amide]]	46
O=C(Nc1ccc(N2CCOCC2=O)cc1)c1cc(-c2ccco2)n(Cc2cc(-c3ccc(Cl)s3)on2)n1 [Example 99, 1-[5-(5-Chloro-thiophen-2-yl)-isoxazol-3-ylmethyl]-5-furan-2-yl-1H-pyrazole-3-carboxylic acid [4-(3-oxo-morpholin-4-yl)-phenyl]-amide]	11
CC(C)N1CCC(NC(=O)c2cc(C(=O)NC3CCC3)nn2CC(=O)Nc2ccc(Cl)cn2)CC1 [Example 52, 1-[(5-Chloro-pyridin-2-ylcarbamoyl)-methyl]-1H-pyrazole-3,5-dicarboxylic acid 3-cyclobutylamide 5-[(1-isopropyl-piperidin-4-yl)-amide]]	16
